Experimental data taken from ChEMBL document CHEMBL1133765, “QSAR model for drug human oral bioavailability” (J Med Chem, 2000).

Experiments:
[1] = octanol/water
clinical = details: human, in vivo, po
physchem [2] = details: octanol/water
physchem [3] = assay: physchem

Row | SMILES | delta logD [1] | bioavailability (clinical) [%] | logD (physchem [2]; pH 6.5) | bioavailability (clinical; F) [%] | logD (physchem [2]; pH 6.5, logD) | pKa (physchem [3])
1 | C=CCN1CC[C@]23c4c5ccc(O)c4O[C@H]2C(=O)CC[C@@]3(O)[C@H]1C5 [NALOXONE] | -0.81 | < 20 | 0.64 | – | – | –
2 | CN(C)CC(Oc1ccccc1)Oc1ccccc1 [MEDIFOXAMINE] | -0.89 | – | – | 49 | -0.43 | 9.2
3 | C[C@@H]1C[C@H]2[C@@H]3CCC4=CC(=O)C=C[C@]4(C)[C@@]3(F)[C@@H](O)C[C@]2(C)[C@@]1(O)C(=O)CO [DEXAMETHASONE] | 0 | – | – | – | 1.83 | –
4 | C[C@H]1C[C@@H]2[C@H]([C@@H](O)C[C@@]3(C)[C@H]2CC[C@]3(O)C(=O)CO)[C@@]2(C)C=CC(=O)C=C12 [METHYLPREDNISOLONE] | 0 | – | – | > 80 | 1.66 | –
5 | O=C(CCCN1CCC(O)(c2ccc(Cl)cc2)CC1)c1ccc(F)cc1 [HALOPERIDOL] | -0.86 | – | – | 79 | 1.42 | –
6 | CN1CCN(CCCN2c3ccccc3Sc3ccc(Cl)cc32)CC1 [PROCHLORPERAZINE] | -0.69 | – | – | < 20 | 2.51 | 7.5
7 | Nc1nc(=O)[nH]cc1F [FLUCYTOSINE] | 0 | – | – | > 80 | -1.65 | –
8 | NNC(=O)c1ccncc1 [ISONIAZID] | 0 | – | – | > 80 | -0.7 | –
9 | CN1CCN(C2=Nc3cc(Cl)ccc3Nc3ccccc32)CC1 [CLOZAPINE] | -0.81 | 79 | 1.81 | – | – | –
10 | COC(=O)C1=C(C)NC(C)=C(C(=O)OCCN(C)Cc2ccccc2)C1c1cccc([N+](=O)[O-])c1 (configuration not stated) [NICARDIPINE] | -0.72 | – | – | 49 | 1.18 | 7.6
11 | Cc1nc2n(c(=O)c1CCN1CCC(c3noc4cc(F)ccc34)CC1)CCCC2 [RISPERIDONE] | -0.9 | 79 | 0.74 | – | – | –
12 | Cc1ncsc1CCCl [CLOMETHIAZOLE] | 0 | < 20 | 2.12 | – | – | –
13 | O=c1n(CCCN2CCN(c3cccc(Cl)c3)CC2)nc2ccccn12 [TRAZODONE] | -0.33 | – | – | > 80 | 1.47 | 6.7
14 | CCC1(c2ccccc2)C(=O)NC(=O)NC1=O [PHENOBARBITAL] | 0.21 | > 80 | 1.43 | – | – | –
15 | CN(C/C=C/C#CC(C)(C)C)Cc1cccc2ccccc12 [TERBINAFINE] | -0.86 | – | – | 49 | 3.3 | 8.5
16 | Nc1nc(N)c2nc(-c3ccccc3)c(N)nc2n1 | -0.15 | – | – | 79 | 0.8 | 6.2
17 | O=C1CN(/N=C/c2ccc([N+](=O)[O-])o2)C(=O)N1 [NITROFURANTOIN] | 0 | – | – | > 80 | -0.47 | –
18 | CNC[C@H](O)c1ccc(O)c(O)c1 [EPINEPHRINE] | -0.9 | – | – | < 20 | -3.49 | 9.9
19 | CNC(=C[N+](=O)[O-])NCCSCc1csc(CN(C)C)n1 [NIZATIDINE] | -0.38 | – | – | > 80 | -0.08 | 6.8
20 | CNCCC=C1c2ccccc2CCc2ccccc21 [NORTRIPTYLINE] | -0.9 | – | – | 79 | 1.08 | –

Row | SMILES | delta logD [1] | bioavailability (clinical) [%] | logD (physchem [2]; pH 6.5) | bioavailability (clinical; F) [%] | logD (physchem [2]; pH 6.5, logD) | pKa (physchem [3])
21 | O=C1CN=C(c2ccccc2)c2cc([N+](=O)[O-])ccc2N1 [NITRAZEPAM] | 0 | 79 | 2.25 | – | – | –
22 | Cc1nccn1CC1CCc2c(c3ccccc3n2C)C1=O (configuration not stated) [ONDANSETRON] | -0.61 | – | – | 79 | 1.13 | 7.3
23 | CC(=O)CCCCn1c(=O)c2c(ncn2C)n(C)c1=O [PENTOXIFYLLINE] | 0 | – | – | 49 | 0.29 | –
24 | C[C@H]1C[C@H]2[C@@H]3CCC4=CC(=O)C=C[C@]4(C)[C@@]3(F)[C@@H](O)C[C@]2(C)[C@@]1(O)C(=O)CO [BETAMETHASONE] | 0 | – | – | – | 1.94 | –
25 | CC(=O)Oc1ccccc1C(=O)O [ASPIRIN] | 0.9 | – | – | 79 | -1.81 | –
26 | CC(C)NCC(O)c1cc(O)cc(O)c1 (configuration not stated) [METAPROTERENOL] | -0.9 | – | – | < 20 | -2.72 | 9.3
27 | Oc1ccc2c3c1O[C@H]1[C@@H](O)CC[C@@]4(O)[C@@H](C2)N(CC2CCC2)CC[C@]314 [NALBUPHINE] | -0.88 | < 20 | -0.63 | – | – | 8.7
28 | Clc1cccc(Cl)c1N=C1NCCN1 [CLONIDINE] | -0.82 | – | – | > 80 | 0.06 | 8
29 | CC(C)(C)NCC(O)c1cc(O)cc(O)c1 (configuration not stated) [TERBUTALINE] | -0.89 | – | – | < 20 | -1.82 | –
30 | CCOC(=O)c1ncn2c1CN(C)C(=O)c1cc(F)ccc1-2 [FLUMAZENIL] | -0.14 | < 20 | 1.01 | – | – | 6.2
31 | O=c1[nH]cc(F)c(=O)[nH]1 [FLUOROURACIL] | 0.1 | 49 | -0.89 | – | – | 8
32 | CO/C(O)=C1\C(C)=NC(C)=C(C(=O)OCC(C)C)C1c1ccccc1[N+](=O)[O-] (configuration not stated) | 0 | – | – | < 20 | 1.58 | –
33 | CCC1(c2ccccc2)C(=O)NCNC1=O [PRIMIDONE] | 0 | – | – | > 80 | 0.91 | –
34 | CCNCC(O)c1cccc(O)c1 (configuration not stated) [ETILEFRINE] | -0.9 | 49 | -2.86 | – | – | 9.8
35 | CC(C)=CCN1CC[C@@]2(C)c3cc(O)ccc3C[C@@H]1[C@@H]2C | -0.88 | 49 | 1.05 | – | – | 8.8
36 | CNC[C@H](O)c1cccc(O)c1 [PHENYLEPHRINE] | -0.9 | – | – | 49 | -3.02 | 9.8
37 | CC(C)(Sc1cc(C(C)(C)C)c(O)c(C(C)(C)C)c1)Sc1cc(C(C)(C)C)c(O)c(C(C)(C)C)c1 [PROBUCOL] | 0 | – | – | < 20 | 7.29 | –
38 | CC(C)NCC(O)c1ccc(O)c(O)c1 (configuration not stated) [ISOPROTERENOL] | -0.88 | – | – | 49 | -2.76 | 8.7
39 | C#C[C@]1(O)CC[C@H]2[C@@H]3CCC4=CC(=O)CC[C@@H]4[C@H]3CC[C@@]21C [NORETHINDRONE] | 0 | – | – | 79 | 2.97 | –
40 | CC(=O)S[C@@H]1CC2=CC(=O)CC[C@]2(C)[C@H]2CC[C@@]3(C)[C@@H](CC[C@@]34CCC(=O)O4)[C@H]12 [SPIRONOLACTONE] | 0 | – | – | 49 | 2.78 | –

Row | SMILES | delta logD [1] | bioavailability (clinical) [%] | logD (physchem [2]; pH 6.5) | bioavailability (clinical; F) [%] | logD (physchem [2]; pH 6.5, logD) | pKa (physchem [3])
41 | COCCOC(=O)C1=C(C)NC(C)=C(C(=O)OC(C)C)C1c1cccc([N+](=O)[O-])c1 (configuration not stated) [NIMODIPINE] | 0 | – | – | < 20 | 0.73 | –
42 | Oc1ccc(C(O)C2CCCCN2)cc1O (configuration not stated) [RIMITEROL] | -0.9 | < 20 | -3.13 | – | – | 9.9
43 | COc1cc(NC(C)CCCN)c2ncccc2c1 (configuration not stated) [PRIMAQUINE] | -0.9 | – | – | 79 | -2.19 | 10.3
44 | CC(CCc1ccc(O)cc1)NCCc1ccc(O)c(O)c1 (configuration not stated) [DOBUTAMINE] | -0.9 | – | – | < 20 | -0.48 | 9.5
45 | COC(=O)C1=C(C#N)NC(C)=C(C(=O)OC(C)C)C1c1cccc([N+](=O)[O-])c1 (configuration not stated) [NILVADIPINE] | 0 | – | – | < 20 | 1.99 | –
46 | CCC1(C)CC(=O)NC1=O (configuration not stated) [ETHOSUXIMIDE] | 0 | > 80 | -0.33 | – | – | –
47 | CNS(=O)(=O)Cc1ccc2[nH]cc(CCN(C)C)c2c1 | -0.9 | – | – | < 20 | -2.07 | 9.4
48 | CNC1=Nc2ccc(Cl)cc2C(c2ccccc2)=[N+]([O-])C1 [CHLORDIAZEPOXIDE] | -0.01 | > 80 | 2.43 | – | – | 4.8
49 | COc1cc2nc(N3CCN(C(=O)C4CCCO4)CC3)nc(N)c2cc1OC (configuration not stated) [TERAZOSIN] | -0.52 | – | – | > 80 | 0.29 | –
50 | O=C1CN=C(c2ccccc2Cl)c2cc([N+](=O)[O-])ccc2N1 [CLONAZEPAM] | 0 | > 80 | 2.41 | – | – | –
51 | CN1CCN2c3ccccc3Cc3ccccc3C2C1 (configuration not stated) [MIANSERIN] | -0.52 | – | – | 49 | 2.78 | –
52 | CNCCC[C@]12CC[C@H](c3ccccc31)c1ccccc12 | -0.9 | – | – | 79 | 0.52 | 10.5
53 | CNCCCC1c2ccccc2C=Cc2ccccc21 [PROTRIPTYLINE] | -0.84 | – | – | > 80 | 0.34 | 8.2
54 | CC(C)(C)NC(=O)C1CC[C@H]2[C@]3(C)CC[C@H]4NC(=O)C=C[C@]4(C)[C@H]3CC[C@]12C (some centres not stated) | 0 | – | – | 79 | 3.03 | –
55 | C#C[C@]1(O)CC[C@H]2[C@@H]3CCc4cc(O)ccc4[C@H]3CC[C@@]21C [ETHINYL ESTRADIOL] | 0 | – | – | 49 | 3.67 | –
56 | CN(C)CCC=C1c2ccccc2CCc2ccccc21 [AMITRIPTYLINE] | -0.9 | 49 | 2.14 | – | – | –
57 | CCCCCc1cc(O)c2c(c1)OC(C)(C)[C@@H]1CCC(C)=C[C@@H]21 [DRONABINOL] | 0 | < 20 | 4.49 | – | – | –
58 | O=P1(N(CCCl)CCCl)NCCCO1 (configuration not stated) [CYCLOPHOSPHAMIDE ANHYDROUS] | 0 | > 80 | 0.63 | – | – | –
